Data as given in patent publication US7138246B2, “Methods for identifying or screening for agents that modulate 17β-HSD3” (Bristol-Myers Squibb Company, priority 2004, dated 2006).

Legend:
17β-HSD3 [1] = molecular target: T1, 17β-HSD3 (Homo sapiens, UniProt P37058); assay: 17β-HSD3 SEAP assay (PSA reporter) in MDA MB 453/17β-HSD3 cells; assay type: cell-based; design: expressed in transfected cells; conditions: MDA-MB453-17β-HSD3 cells, PSA-SEAP reporter, read-out: IC50, 17β-HSD3 cell based activity
T1 sequence (P37058 1-310): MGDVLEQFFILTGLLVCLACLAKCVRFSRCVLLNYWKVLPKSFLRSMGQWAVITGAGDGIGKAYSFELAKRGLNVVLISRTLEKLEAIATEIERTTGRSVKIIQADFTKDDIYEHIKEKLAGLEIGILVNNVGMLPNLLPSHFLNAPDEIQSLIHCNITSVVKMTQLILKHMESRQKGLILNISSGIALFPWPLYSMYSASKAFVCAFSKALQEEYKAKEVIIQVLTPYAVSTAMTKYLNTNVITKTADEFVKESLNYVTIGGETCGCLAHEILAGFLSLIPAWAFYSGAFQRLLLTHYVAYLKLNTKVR
Method: Cultured MDA MB 453/17β-HSD3 cells were trypsinized, spun at 1000 rpm for 10 minutes, and resuspended in DMEM/10% cFBS supplemented with 5 mM BES at a concentration of 4×10^7 cells per mL. The cells (aliquots of 1×10^7 cells) were then transiently transfected with 3 μg of the PSA-SEAP construct by electroporation at 0.22 kVolts and 960 μFD with a time constant of […]. After a short recovery period, the cells were spun down and resuspended in DMEM/10% cFBS and plated into 96-well tissue culture plates (5×10^5 cells per well in 50 μL). After overnight adherence, the compounds were diluted in DMEM/10% and cFBS was added to the cells. 24 hours later, the medium was removed, fresh media containing the compounds was added in the presence of 10 nM Androstenedione, and this mixture was allowed to incubate for 24 hours. 25 μL of the culture supernatant was then removed and plated into 96-well black Optiplates (Perkin Elmer) for SEAP measurement as described by the reagent manufacturer (Tropix). Briefly, the supernatant was heat inactivated at 65° C. for 30 minutes and then allowed to cool to room temperature. Assay buffer (25 μL, Tropix) was then added and allowed to mix for 5 minutes followed by the addition of the Reaction buffer (25 μL, Tropix) and the plates were then incubated for 20 minutes in the dark. Plates were then read using a Packard Instruments TopCount with luminescent detection and signal was captured for 10 seconds per well and photon emission (cps) was averaged. A standard MTS assay (Promega) as described by the manufacturer, was performed in parallel to normalize the data based on cell numbers. Data analysis including percent inhibition and IC50 determination, based on 10 point serially diluted curves in duplicate, was then performed using Microsoft Excel and XLFit.
The analysis of 17β-HSD3 steroid conversion by TLC is hampered by the limitation to examine large numbers of compounds. […] To test this system, a prostate specific antigen (PSA) reporter plasmid was transfected into MDA-MB453 cells stably expressing 17β-HSD3 and stimulated with different concentrations of androstenedione (FIG. 5B).
To evaluate the suitability of this cellular assay for monitoring 17β-HSD3 cell based activity, the inhibitory effects of 18β-glycyrrhetinic acid and […] were examined.

17β-HSD3 [2] = molecular target: T1, 17β-HSD3; assay: 17β-HSD3 scintillation proximity assay (SPA); assay type: biochemical; design: made in house; CHAPS-solubilised 100,000 x g supernatant; conditions: for 17β-HSD3 inhibitory activity in the SPA: FIG. 3B
Method: HEK293/17β-HSD3 cells were harvested by scraping or treatment with Cell Dissociation Buffer (Invitrogen) and collected in ice cold Phosphate Buffered Saline (PBS) containing a protease inhibitor cocktail (Complete Tabs, Roche Diagnostics). The cells were then pelleted by centrifugation at 1000 rpm and washed once more in the same buffer. The cells were then resuspended in 2× the cell pellet volume with ice cold lysis buffer (40 mM Tris-HCl pH7.5, 2 mM DTT, 1 mM EDTA, 10% Glycerol (v/v), 0.5% CHAPS (w/v), 1M 1-(3-sulfopropyl)pyridinium hydroxide, Complete Tab(s)) and dounce homogenized on ice. The crude lysate was then incubated on ice for 60 minutes to allow for membrane protein solubilization, followed by centrifugation at 100,000×g for 60 minutes at 4° C. The supernatant was then removed and dialyzed overnight at 4° C. against the enzyme storage buffer (40 mM Tris-HCl pH 7.5, 40 mM KCl, 2 mM DTT, 1 mM EDTA, 20% Glycerol (v/v), Complete Tab(s)). Protein concentration was determined by the Bradford assay, the enzyme was aliquotted, and stored at −80° C. Activity was assessed using the SPA described below.
SPA beads conjugated to anti-mouse IgG were incubated overnight in SPA Bead Buffer (50 mM Tris pH 8.0, 10% Glycerol (v/v)), with anti-Testosterone monoclonal antibody (2 μg antibody per 1 mg of SPA beads) under gentle rotation. The antibody saturated bead complex was then spun down at 500 rpm for 10 minutes at 4° C. and the beads were resuspended in SPA Bead Buffer at a final concentration of 0.5 mg/160 μL. The anti-T/SPA Beads were then stored at 4° C. until needed. Enzymatic assays were conducted in 30 μL total reaction volumes in 96-well white Optiplates (Perkin Elmer). The reaction buffer consisted of 50 mM MES pH 6.0, 2 mM DTT, 0.1% CHAPS, 3 mM NADPH, 10% Glycerol (v/v), 850 nM 4-Androstene-3,17-Dione, and 50 nM [3H]4-Androstene-3,17-Dione (Specific Activity 70–110Ci/mmol). Compounds were diluted such that the final concentration of ethanol and DMSO would not exceed 3% (v/v) and 1% (v/v) respectively, corresponding to concentrations that had little or no effect on enzymatic activity (data not shown). Previously prepared and frozen 17β-HSD3 enzyme was diluted into ice cold buffer containing 50 mM Mes, 40 mM KCl, 2 mM DTT, 1 mM EDTA, and 10% glycerol (v/v) and added last to the reaction mixture. The reaction was allowed to proceed for 60 minutes at room temperature and was stopped by the addition of 10 μL of 0.1N HCl. After the reactions were stopped, an excess of the anti-T/SPA Beads (0.5 mg) were added to each well to a final volume of 200 μL. The plates were sealed and shaken at ˜200 rpm on an orbital shaker at room temp for at least 90 minutes or overnight at 4° C. After allowing the beads to settle, the amount of [3H]Testosterone produced in each well was determined by scintillation counting on a Perkin Elmer TopCount instrument and collected as DPMs. The data was then analyzed and percent inhibition and/or IC50 values, based on 10 point serially diluted curves in duplicate or triplicate, were calculated using Microsoft Excel and XLFit programs. […] Input samples and unbound supernatants, from the enzymatic reactions, were quantitated by scintillation counting to aid in the calculation of bound versus free testosterone produced. Km values were calculated using the Lineweaver-Burke formula and plots where 1/v=(Km+[s])/(Vmax [s]). […]

Row | SMILES | IC50 (17β-HSD3 [1]; FIG. 5C) [µM] | 17β-HSD3 inhibitory activity in the SPA (17β-HSD3 [2]) | IC50 (17β-HSD3 [1]) [µM] | IC50 (17β-HSD3 [2]; read-out: IC50, 17β-HSD3 biochemical activity) [µM]
1 | CC1(C)[C@@H](O)CC[C@]2(C)[C@H]3C(=O)C=C4[C@@H]5C[C@@](C)(C(=O)O)CC[C@]5(C)CC[C@@]4(C)[C@]3(C)CC[C@@H]12 [18β-glycyrrhetinic acid] | 3.8 | potent inhibitory activity |  | 
2 | COc1ccccc1CCNC(=O)c1cc(Oc2ccccc2)ccc1NC(=O)c1ccc(O)c(Cl)c1 [2-[(3-chloro-4-hydroxybenzoyl)amino]-N-[2-(2-methoxyphenyl)ethyl]-5-phenoxybenzamide] |  |  | 0.3 | 0.06
3 | C[C@]12C=CC(=O)C=C1C(=O)C[C@@H]1[C@@H]2CC[C@]2(C)C(=O)CC[C@@H]12 [1,4-androstadiene-1,6,17-trione] | 1.6 | potent inhibitory activity |  | 
